Data: ChEMBL document CHEMBL3885881, “DrugMatrix”

Species: Rattus norvegicus
Assay: DrugMatrix - Regimen: Daily Repeat
Assay type: toxicity, organism-based, Sprague-Dawley
Design: regimen Daily Repeat, gender Male, age 6-8 weeks
Conditions: in vivo, po, route oral GAVAGE, vehicle .5 % CMC; for ABSOLUTE BASOPHIL / ABSOLUTE EOSINOPHIL / ABSOLUTE LYMPHOCYTE / ABSOLUTE MONOCYTE / ABSOLUTE SEGMENTED NEUTROPHIL / BASOPHIL / EOSINOPHIL / ERYTHROCYTE COUNT / HEMATOCRIT / HEMOGLOBIN / LEUKOCYTE COUNT / LYMPHOCYTE / MEAN CORPUSCULAR HEMOGLOBIN / MEAN CORPUSCULAR HEMOGLOBIN CONCENTRATION / MEAN CORPUSCULAR VOLUME / MONOCYTE / NEUTROPHIL / NUCLEATED RED BLOOD CELLS / PLATELET COUNT: tissue Blood; for ALANINE AMINOTRANSFERASE / ALBUMIN / ALKALINE PHOSPHATASE / ASPARTATE AMINOTRANSFERASE / BLOOD UREA NITROGEN / CARBON DIOXIDE / CHLORIDE / CHOLESTEROL / CREATINE PHOSPHOKINASE / CREATININE / GLUCOSE / LACTATE DEHYDROGENASE / LIPASE / PHOSPHORUS / POTASSIUM / SODIUM / TOTAL BILIRUBIN / TOTAL PROTEIN / URIC ACID: tissue Plasma
[1] = 200 mg/kg, 120 h, dose level Low, time 5 day
[2] = 1500 mg/kg, 72 h, dose level High, time 3 day
[3] = 1500 mg/kg, 120 h, dose level High, time 5 day

## CCn1cc(C(=O)O)c(=O)c2cc(F)c(N3CCNCC3)cc21 [NORFLOXACIN]
[1]
  ABSOLUTE BASOPHIL: 0 CELLS/uL
  ABSOLUTE EOSINOPHIL: 0 CELLS/uL
  ABSOLUTE LYMPHOCYTE: 13445.67 CELLS/uL
  ABSOLUTE MONOCYTE: 43.67 CELLS/uL
  ABSOLUTE SEGMENTED NEUTROPHIL: 644 CELLS/uL
  BASOPHIL: 0%
  EOSINOPHIL: 0%
  ERYTHROCYTE COUNT: 5.72 x10E6/uL
  HEMATOCRIT: 35.23%
  HEMOGLOBIN: 14.43 G/DL
  LEUKOCYTE COUNT: 14.13 x10E3/uL
  LYMPHOCYTE: 95%
  MEAN CORPUSCULAR HEMOGLOBIN: 25.37 pg
  MEAN CORPUSCULAR HEMOGLOBIN CONCENTRATION: 41 G/DL
  MEAN CORPUSCULAR VOLUME: 61.8 fL
  MONOCYTE: 0.33%
  NEUTROPHIL: 4.67%
  NUCLEATED RED BLOOD CELLS: 0.33 /100WBC
  PLATELET COUNT: 1391.67 x10E3/uL
  ALANINE AMINOTRANSFERASE: 60.33 u/L
  ALBUMIN: 4.43 G/DL
  ALKALINE PHOSPHATASE: 370.33 u/L
  ASPARTATE AMINOTRANSFERASE: 99 u/L
  BLOOD UREA NITROGEN: 15.67 mg/dL
  CARBON DIOXIDE: 26.67 mmol/L
  CHLORIDE: 102 MEQ/L
  CHOLESTEROL: 45.67 mg/dL
  CREATINE PHOSPHOKINASE: 920 u/L
  CREATININE: 0.25 mg/dL
  GLUCOSE: 138.67 mg/dL
  LACTATE DEHYDROGENASE: 195.67 u/L
  LIPASE: 9.33 u/L
  PHOSPHORUS: 12.13 mg/dL
  POTASSIUM: 6.16 MEQ/L
  SODIUM: 145 MEQ/L
  TOTAL BILIRUBIN: 0.2 mg/dL
  TOTAL PROTEIN: 6.3 G/DL
  URIC ACID: 1.53 mg/dL
[2]
  ABSOLUTE BASOPHIL: 0 CELLS/uL
  ABSOLUTE EOSINOPHIL: 108.33 CELLS/uL
  ABSOLUTE LYMPHOCYTE: 13773 CELLS/uL
  ABSOLUTE MONOCYTE: 98.33 CELLS/uL
  ABSOLUTE SEGMENTED NEUTROPHIL: 1087 CELLS/uL
  BASOPHIL: 0%
  EOSINOPHIL: 0.67%
  ERYTHROCYTE COUNT: 5.77 x10E6/uL
  HEMATOCRIT: 37.03%
  HEMOGLOBIN: 14.53 G/DL
  LEUKOCYTE COUNT: 15.07 x10E3/uL
  LYMPHOCYTE: 91.33%
  MEAN CORPUSCULAR HEMOGLOBIN: 25.2 pg
  MEAN CORPUSCULAR HEMOGLOBIN CONCENTRATION: 39.23 G/DL
  MEAN CORPUSCULAR VOLUME: 64.2 fL
  MONOCYTE: 0.67%
  NEUTROPHIL: 7.33%
  NUCLEATED RED BLOOD CELLS: 0 /100WBC
  PLATELET COUNT: 1268.67 x10E3/uL
  ALANINE AMINOTRANSFERASE: 62.67 u/L
  ALBUMIN: 4.2 G/DL
  ALKALINE PHOSPHATASE: 453 u/L
  ASPARTATE AMINOTRANSFERASE: 76 u/L
  BLOOD UREA NITROGEN: 16 mg/dL
  CARBON DIOXIDE: 32.33 mmol/L
  CHLORIDE: 101.33 MEQ/L
  CHOLESTEROL: 46.67 mg/dL
  CREATINE PHOSPHOKINASE: 192 u/L
  CREATININE: 0.24 mg/dL
  GLUCOSE: 128 mg/dL
  LACTATE DEHYDROGENASE: 150 u/L
  LIPASE: 9.33 u/L
  PHOSPHORUS: 11.07 mg/dL
  POTASSIUM: 6.55 MEQ/L
  SODIUM: 147.2 MEQ/L
  TOTAL BILIRUBIN: 0.13 mg/dL
  TOTAL PROTEIN: 6 G/DL
  URIC ACID: 1.13 mg/dL
[3]
  ABSOLUTE BASOPHIL: 0 CELLS/uL
  ABSOLUTE EOSINOPHIL: 0 CELLS/uL
  ABSOLUTE LYMPHOCYTE: 15656 CELLS/uL
  ABSOLUTE MONOCYTE: 107.67 CELLS/uL
  ABSOLUTE SEGMENTED NEUTROPHIL: 603 CELLS/uL
  BASOPHIL: 0%
  EOSINOPHIL: 0%
  ERYTHROCYTE COUNT: 5.97 x10E6/uL
  HEMATOCRIT: 36.5%
  HEMOGLOBIN: 14.8 G/DL
  LEUKOCYTE COUNT: 16.37 x10E3/uL
  LYMPHOCYTE: 95.67%
  MEAN CORPUSCULAR HEMOGLOBIN: 24.83 pg
  MEAN CORPUSCULAR HEMOGLOBIN CONCENTRATION: 40.53 G/DL
  MEAN CORPUSCULAR VOLUME: 61.23 fL
  MONOCYTE: 0.67%
  NEUTROPHIL: 3.67%
  NUCLEATED RED BLOOD CELLS: 0 /100WBC
  PLATELET COUNT: 1304.33 x10E3/uL
  ALANINE AMINOTRANSFERASE: 82 u/L
  ALBUMIN: 4.47 G/DL
  ALKALINE PHOSPHATASE: 305.67 u/L
  ASPARTATE AMINOTRANSFERASE: 89.67 u/L
  BLOOD UREA NITROGEN: 17.33 mg/dL
  CARBON DIOXIDE: 22.33 mmol/L
  CHLORIDE: 102.33 MEQ/L
  CHOLESTEROL: 48 mg/dL
  CREATINE PHOSPHOKINASE: 264 u/L
  CREATININE: 0.43 mg/dL
  GLUCOSE: 145.33 mg/dL
  LACTATE DEHYDROGENASE: 298.67 u/L
  LIPASE: 12 u/L
  PHOSPHORUS: 10.97 mg/dL
  POTASSIUM: 6.62 MEQ/L
  SODIUM: 145.07 MEQ/L
  TOTAL BILIRUBIN: 0.13 mg/dL
  TOTAL PROTEIN: 6.77 G/DL
  URIC ACID: 2.07 mg/dL
